{
  "source": "ChEMBL document CHEMBL1147351",
  "about": "“Sesquiterpenoids and norsesquiterpenoids from the soft coral Lemnalia africana” (J Nat Prod, 1993)",
  "key": {"[1]": {"assay": "Cytotoxicity against african green monkey CV1 cells", "assay_type": "cell-based", "details": "chlorocebus aethiops, cv-1"}, "P388": {"system": "P388", "assay": "Cytotoxicity against mouse P388 cells at 1 ug/ml", "assay_type": "functional, cell-based"}},
  "note": "Calls of active or inactive are those of the source. The calls are words filed in the database; no cut-off is given here.",
  "data": [
    {"smiles": "C[C@H]1CCC=C2CCC(C(C)(O)CO)=C[C@@]21C", "note": "(some centres not stated)", "values": [
      {"measurement": "Activity", "setting": "[1]", "value": 10, "unit": "µg/mL"},
      {"measurement": "Activity", "setting": "P388", "value": "Active"}
    ]}
  ]
}
